# Read-outs that look alike come from different tables or passages of the source.
# Assays:
# aphids, Myzus persicae = assay: Potter tower spray on aphids, knockdown and mortality; type: in vivo; settings: Myzus persicae, read-out: Average of % corrected affected; for pest or weed control at 0.00625 % strength: 0.00625 % w/v; for pest or weed control at 0.0125 % strength: 0.0125 % w/v; for pest or weed control at 0.025 % strength: 0.025 % w/v; for pest or weed control at 0.05 % strength: 0.05 % w/v; for pest or weed control at 0.1 % strength: 0.1 % w/v
# Source text: The compounds were screened for insecticidal efficacy against aphids, Myzus persicae, Cabbage moth, Mamestra brassicae, diamond black moths, Plutella xylostella, red spider mites, Tetranychus urticae, whitefly, Trialeurodes vaporariorum, in terms of knockdown and mortality.
# (§1) Myzus persicae, Cabbage moth, Mamestra brassicae, diamond back moths, Plutella xylostella, red spider mites, Tetranychus urticae, whitefly, Trialeurodes vaporariorum, were obtained from specified laboratory cultures. Mixed sex and age aphids and mites, moth larvae and whitefly scale infested leaves were used in the experiments. Environmental conditions were closely monitored and recorded and were within the optimal range of the target species.
# (§2) The compounds were screened at a range of five concentrations, diluted in DMSO. Some of the compounds were screened against aphids, whitefly and red spider mites and other compounds were screened against cabbage moth, and diamond black moths. A carrier only and an untreated control will also be conducted. Treatments were applied directly onto the insects within Petri dishes, using a potter tower.
# (§3) Twenty mites and ten aphids, scales and moth larvae were placed within a Petri dish, lined with a suitable leaf disc on a damp cotton wool pad. Scales were already on leaves. The Petri dishes were then sprayed using a potter tower. The number of knocked down and anthropods were assessed at 24 and 48 hours post treatment. Five replicates were be performed for each treatment, for each species.
# (§4) For Tables 2, 4, 5 and 6, the compounds were diluted in DMSO containing 1% v/v Tween 20™. For Tables 2, 4, 5 and 6, the caterpillars were a mixture of Mamestra brassicae and Lacanobia oleracea.
# [1] = system: caterpillars, a mixture of Mamestra brassicae and Lacanobia oleracea; assay: Potter tower spray on caterpillars, knockdown and mortality; type: in vivo; settings: read-out: Average of % corrected affected; for pest or weed control at 0.00625 % strength: 0.00625 % w/v; for pest or weed control at 0.0125 % strength: 0.0125 % w/v; for pest or weed control at 0.025 % strength: 0.025 % w/v; for pest or weed control at 0.05 % strength: 0.05 % w/v; for pest or weed control at 0.1 % strength: 0.1 % w/v
# Source text: as §1, §2, §3, §4
# [2] = 24 h, Aphids, 24 hours post application
# [3] = 48 h, Aphids, 48 hours post application
# [4] = 24 h, Caterpillars, 24 hours post application
# [5] = 48 h, Caterpillars, 48 hours post application
smiles,measurement,setting,value
"COC(CN(Cc1ccc(Cl)nc1)C1=CC(=O)OC1)OC [Compound 5, 3-[(6-Chloro-3-pyridyl)methyl-(2,2-dimethoxyethyl)amino]-2H-furan-5-one]",pest or weed control at 0.00625 % strength,"aphids, Myzus persicae; [2]",1 to 19%
same,pest or weed control at 0.0125 % strength,"aphids, Myzus persicae; [2]",1 to 19%
same,pest or weed control at 0.025 % strength,"aphids, Myzus persicae; [2]",1 to 19%
same,pest or weed control at 0.05 % strength,"aphids, Myzus persicae; [2]",20 to 39%
same,pest or weed control at 0.1 % strength,"aphids, Myzus persicae; [2]",1 to 19%
same,pest or weed control at 0.00625 % strength,"aphids, Myzus persicae; [3]",1 to 19%
same,pest or weed control at 0.0125 % strength,"aphids, Myzus persicae; [3]",1 to 19%
same,pest or weed control at 0.025 % strength,"aphids, Myzus persicae; [3]",1 to 19%
same,pest or weed control at 0.05 % strength,"aphids, Myzus persicae; [3]",20 to 39%
same,pest or weed control at 0.1 % strength,"aphids, Myzus persicae; [3]",1 to 19%
same,pest or weed control at 0.00625 % strength,[1]; [4],1 to 19%
same,pest or weed control at 0.0125 % strength,[1]; [4],1 to 19%
same,pest or weed control at 0.025 % strength,[1]; [4],1 to 19%
same,pest or weed control at 0.05 % strength,[1]; [4],1 to 19%
same,pest or weed control at 0.1 % strength,[1]; [4],1 to 19%
same,pest or weed control at 0.00625 % strength,[1]; [5],1 to 19%
same,pest or weed control at 0.0125 % strength,[1]; [5],1 to 19%
same,pest or weed control at 0.025 % strength,[1]; [5],1 to 19%
same,pest or weed control at 0.05 % strength,[1]; [5],1 to 19%
same,pest or weed control at 0.1 % strength,[1]; [5],20 to 39%
"N#CCN(Cc1ccc(Cl)nc1)C1=CC(=O)OC1 [Compound 7, 2-[(6-Chloro-3-pyridyl)methyl-(5-oxo-2H-furan-3-yl)amino]acetonitrile]",pest or weed control at 0.00625 % strength,"aphids, Myzus persicae; [2]",1 to 19%
same,pest or weed control at 0.0125 % strength,"aphids, Myzus persicae; [2]",20 to 39%
same,pest or weed control at 0.025 % strength,"aphids, Myzus persicae; [2]",20 to 39%
same,pest or weed control at 0.05 % strength,"aphids, Myzus persicae; [2]",40 to 59%
same,pest or weed control at 0.1 % strength,"aphids, Myzus persicae; [2]",1 to 19%
same,pest or weed control at 0.00625 % strength,"aphids, Myzus persicae; [3]",40 to 59%
same,pest or weed control at 0.0125 % strength,"aphids, Myzus persicae; [3]",40 to 59%
same,pest or weed control at 0.025 % strength,"aphids, Myzus persicae; [3]",40 to 59%
same,pest or weed control at 0.05 % strength,"aphids, Myzus persicae; [3]",40 to 59%
same,pest or weed control at 0.1 % strength,"aphids, Myzus persicae; [3]",1 to 19%
same,pest or weed control at 0.00625 % strength,[1]; [4],1 to 19%
same,pest or weed control at 0.0125 % strength,[1]; [4],1 to 19%
same,pest or weed control at 0.025 % strength,[1]; [4],1 to 19%
same,pest or weed control at 0.05 % strength,[1]; [4],0%
same,pest or weed control at 0.1 % strength,[1]; [4],1 to 19%
same,pest or weed control at 0.00625 % strength,[1]; [5],1 to 19%
same,pest or weed control at 0.0125 % strength,[1]; [5],0%
same,pest or weed control at 0.025 % strength,[1]; [5],1 to 19%
same,pest or weed control at 0.05 % strength,[1]; [5],0%
same,pest or weed control at 0.1 % strength,[1]; [5],1 to 19%
"Cc1cc(C2=NOC(c3cc(Cl)cc(Cl)c3)(C(F)(F)F)C2)ccc1SCC(=O)NCC(F)(F)F (stereo not shown) [Compound 15, 2-[4-[5-(3,5-dichlorophenyl)-5-(trifluoromethyl)-4H-isoxazol-3-yl]-2-methyl-phenyl]sulfanyl-N-(2,2,2-trifluoroethyl)acetamide, reference compound]",pest or weed control at 0.000125 % strength,"aphids, Myzus persicae; 24 h",1 to 19%
same,pest or weed control at 0.00025 % strength,"aphids, Myzus persicae; 24 h",1 to 19%
same,pest or weed control at 0.0005 % strength,"aphids, Myzus persicae; 24 h",1 to 19%
same,pest or weed control at 0.001 % strength,"aphids, Myzus persicae; 24 h",1 to 19%
same,pest or weed control at 0.002 % strength,"aphids, Myzus persicae; 24 h",0%
same,pest or weed control at 0.000125 % strength,"aphids, Myzus persicae; 48 h",1 to 19%
same,pest or weed control at 0.00025 % strength,"aphids, Myzus persicae; 48 h",1 to 19%
same,pest or weed control at 0.0005 % strength,"aphids, Myzus persicae; 48 h",1 to 19%
same,pest or weed control at 0.001 % strength,"aphids, Myzus persicae; 48 h",20 to 39%
same,pest or weed control at 0.002 % strength,"aphids, Myzus persicae; 48 h",20 to 39%
same,pest or weed control at 0.000125 % strength,[1]; 24 h,1 to 19%
same,pest or weed control at 0.00025 % strength,[1]; 24 h,1 to 19%
same,pest or weed control at 0.0005 % strength,[1]; 24 h,1 to 19%
same,pest or weed control at 0.001 % strength,[1]; 24 h,1 to 19%
same,pest or weed control at 0.002 % strength,[1]; 24 h,1 to 19%
same,pest or weed control at 0.000125 % strength,[1]; 48 h,0%
same,pest or weed control at 0.00025 % strength,[1]; 48 h,1 to 19%
same,pest or weed control at 0.0005 % strength,[1]; 48 h,1 to 19%
same,pest or weed control at 0.001 % strength,[1]; 48 h,1 to 19%
same,pest or weed control at 0.002 % strength,[1]; 48 h,1 to 19%
"Cc1cc(C2=NCC(c3cc(Cl)cc(Cl)c3)(C(F)(F)F)O2)ccc1SCC(=O)NCC(F)(F)F (stereo not shown) [Compound 18, 2-[4-[5-(3,5-dichlorophenyl)-5-(trifluoromethyl)-4H-oxazol-2-yl]-2-methyl-phenyl]sulfanyl-N-(2,2,2-trifluoroethyl)acetamide]",pest or weed control at 0.000125 % strength,"aphids, Myzus persicae; 24 h, Aphids, 0.000125 % w/v, 24 hours post application",1 to 19%
same,pest or weed control at 0.00025 % strength,"aphids, Myzus persicae; 24 h, Aphids, 0.00025 % w/v, 24 hours post application",1 to 19%
same,pest or weed control at 0.0005 % strength,"aphids, Myzus persicae; 24 h, Aphids, 0.0005 % w/v, 24 hours post application",1 to 19%
same,pest or weed control at 0.001 % strength,"aphids, Myzus persicae; 24 h, Aphids, 0.001 % w/v, 24 hours post application",1 to 19%
same,pest or weed control at 0.002 % strength,"aphids, Myzus persicae; 24 h, Aphids, 0.002 % w/v, 24 hours post application",1 to 19%
same,pest or weed control at 0.000125 % strength,"aphids, Myzus persicae; 48 h, Aphids, 0.000125 % w/v, 48 hours post application",1 to 19%
same,pest or weed control at 0.00025 % strength,"aphids, Myzus persicae; 48 h, Aphids, 0.00025 % w/v, 48 hours post application",1 to 19%
same,pest or weed control at 0.0005 % strength,"aphids, Myzus persicae; 48 h, Aphids, 0.0005 % w/v, 48 hours post application",1 to 19%
same,pest or weed control at 0.001 % strength,"aphids, Myzus persicae; 48 h, Aphids, 0.001 % w/v, 48 hours post application",1 to 19%
same,pest or weed control at 0.002 % strength,"aphids, Myzus persicae; 48 h, Aphids, 0.002 % w/v, 48 hours post application",1 to 19%
same,pest or weed control at 0.000125 % strength,"[1]; 24 h, Caterpillars, 0.000125 % w/v, 24 hours post application",1 to 19%
same,pest or weed control at 0.00025 % strength,"[1]; 24 h, Caterpillars, 0.00025 % w/v, 24 hours post application",0%
same,pest or weed control at 0.0005 % strength,"[1]; 24 h, Caterpillars, 0.0005 % w/v, 24 hours post application",1 to 19%
same,pest or weed control at 0.001 % strength,"[1]; 24 h, Caterpillars, 0.001 % w/v, 24 hours post application",1 to 19%
same,pest or weed control at 0.002 % strength,"[1]; 24 h, Caterpillars, 0.002 % w/v, 24 hours post application",1 to 19%
same,pest or weed control at 0.000125 % strength,"[1]; 48 h, Caterpillars, 0.000125 % w/v, 48 hours post application",1 to 19%
same,pest or weed control at 0.00025 % strength,"[1]; 48 h, Caterpillars, 0.00025 % w/v, 48 hours post application",1 to 19%
same,pest or weed control at 0.0005 % strength,"[1]; 48 h, Caterpillars, 0.0005 % w/v, 48 hours post application",1 to 19%
same,pest or weed control at 0.001 % strength,"[1]; 48 h, Caterpillars, 0.001 % w/v, 48 hours post application",1 to 19%
same,pest or weed control at 0.002 % strength,"[1]; 48 h, Caterpillars, 0.002 % w/v, 48 hours post application",0%
"O=C(CSc1ccc(C2=NOC(c3cc(Cl)cc(Cl)c3)(C(F)(F)F)C2)s1)NCC(F)(F)F (stereo not shown) [Compound 19, 2-[[5-[5-(3,5-dichlorophenyl)-5-(trifluoromethyl)-4H-isoxazol-3-yl]-2-thienyl]sulfanyl]-N-(2,2,2-trifluoroethyl)acetamide]",pest or weed control at 0.000125 % strength,"aphids, Myzus persicae; 24 h",20 to 39%
same,pest or weed control at 0.00025 % strength,"aphids, Myzus persicae; 24 h",1 to 19%
same,pest or weed control at 0.0005 % strength,"aphids, Myzus persicae; 24 h",1 to 19%
same,pest or weed control at 0.001 % strength,"aphids, Myzus persicae; 24 h",20 to 39%
same,pest or weed control at 0.002 % strength,"aphids, Myzus persicae; 24 h",1 to 19%
same,pest or weed control at 0.000125 % strength,"aphids, Myzus persicae; 48 h",40 to 59%
same,pest or weed control at 0.00025 % strength,"aphids, Myzus persicae; 48 h",20 to 39%
same,pest or weed control at 0.0005 % strength,"aphids, Myzus persicae; 48 h",20 to 39%
same,pest or weed control at 0.001 % strength,"aphids, Myzus persicae; 48 h",40 to 59%
same,pest or weed control at 0.002 % strength,"aphids, Myzus persicae; 48 h",1 to 19%
same,pest or weed control at 0.000125 % strength,[1]; 24 h,0%
same,pest or weed control at 0.00025 % strength,[1]; 24 h,0%
same,pest or weed control at 0.0005 % strength,[1]; 24 h,1 to 19%
same,pest or weed control at 0.001 % strength,[1]; 24 h,1 to 19%
same,pest or weed control at 0.002 % strength,[1]; 24 h,1 to 19%
same,pest or weed control at 0.000125 % strength,[1]; 48 h,1 to 19%
same,pest or weed control at 0.00025 % strength,[1]; 48 h,1 to 19%
same,pest or weed control at 0.0005 % strength,[1]; 48 h,1 to 19%
same,pest or weed control at 0.001 % strength,[1]; 48 h,1 to 19%
same,pest or weed control at 0.002 % strength,[1]; 48 h,1 to 19%
